Data: the supplement of paper PMC10627819

Experiments:
Settings in all cases: main component drawn
B. subtilis 168 [1] = test: fitness (endpoint OD595 vs no drug) (fraction); higher = more growth
How it was run: (§1)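 Bacterial growth was followed in 384-well plates seeded at OD595 0.01, with 30 µl per well, or 55 µl for S. pneumoniae, in TSB, LB Lennox or CY at 37 °C. OD595 was read every 30 min for 14 h, and each reading had the first reading subtracted as background. Fitness is the background-corrected optical density at entry into stationary phase divided by the robust mean of the no-drug control wells. This ratio is capped at 1.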

S. aureus Newman [2] = test: as above
How it was run: as §1

S. pneumoniae D39V [3] = test: as above
How it was run: as §1

B. subtilis 168 [4] = test: Bliss interaction score (quartile over a dose matrix) (fitness difference); higher = more antagonism (negative = synergy)
How it was run: (§2)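 Each OD595 reading at entry into stationary phase was scaled to the robust mean of the untreated wells on its plate, with a ceiling of 1. These ratios define fitness, and single-drug fitness was inferred from combinations. The Bliss score compares observed fitness with the product-based expectation and is reported as quartiles across all replicate types, technical, biological and donor/recipient.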

S. aureus DSM 20231 = test: as above
How it was run: as §2

S. aureus Newman [5] = test: as above
How it was run: as §2

S. pneumoniae D39V [6] = test: as above
How it was run: as §2
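Throughout, for Bliss interaction score (quartile over a dose matrix): first quartile when negative (synergy) and third quartile when positive (antagonism).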

CNC(C)C1CCC(N)C(OC2C(N)CC(N)C(OC3OCC(C)(O)C(NC)C3O)C2O)O1 (stereo not given) [Gentamicin] + CN[C@@H]1[C@H](O)[C@H](NC)[C@H]2O[C@@]3(O)C(=O)C[C@@H](C)O[C@H]3O[C@@H]2[C@H]1O [Spectinomycin]
fitness
Settings | partner 2 µg/mL | partner 4 µg/mL | partner 8 µg/mL | partner 16 µg/mL
B. subtilis 168 [1], first compound 0.0625 µg/mL | 0.951 | 0.988 | 0.814 | –
B. subtilis 168 [1], first compound 0.25 µg/mL | 0.325 | 0.148 | – | –
S. aureus Newman [2], first compound 0.375 µg/mL | – | 0.915 | 0.984 | 0.961
S. aureus Newman [2], first compound 0.5 µg/mL | – | 0.931 | 0.966 | 0.891
S. aureus Newman [2], first compound 0.75 µg/mL | – | 0.928 | ≥ 1 | 0.95
S. aureus Newman [2], first compound 1 µg/mL | – | 0.993 | 0.991 | 0.933
S. aureus Newman [2], first compound 1.5 µg/mL | – | 0.923 | ≥ 1 | 0.96
S. aureus Newman [2], first compound 2 µg/mL | – | ≥ 1 | ≥ 1 | –
S. pneumoniae D39V [3], first compound 2 µg/mL | – | 0.964 | 0.901 | 0.663
S. pneumoniae D39V [3], first compound 4 µg/mL | – | 0.914 | 0.807 | 0.643
S. pneumoniae D39V [3], first compound 8 µg/mL | – | 0.957 | 0.879 | 0.645

fitness, S. aureus Newman [2], one replicate
Settings | first compound 1 µg/mL | first compound 2 µg/mL | first compound 4 µg/mL
partner 16 µg/mL | – | – | 0.0712
partner 32 µg/mL | 0.507 | 0.101 | 0.0361
partner 64 µg/mL | 0.0654 | 0.0856 | 0.0746

Settings | Bliss interaction score
B. subtilis 168 [4] | 0.0812
S. aureus DSM 20231 | 0.044
S. aureus Newman [5] | 0.0532
S. pneumoniae D39V [6] | 0.0871

CNC(C)C1CCC(N)C(OC2C(N)CC(N)C(OC3OCC(C)(O)C(NC)C3O)C2O)O1 (stereo not given) [Gentamicin] + CN[C@@H]1[C@H](O[C@H]2[C@H](O[C@H]3[C@H](O)[C@@H](O)[C@H](N=C(N)N)[C@@H](O)[C@@H]3N=C(N)N)O[C@@H](C)[C@]2(O)C=O)O[C@@H](CO)[C@H](O)[C@H]1O [Streptomycin]
fitness
Settings | partner 1 µg/mL | partner 2 µg/mL | partner 4 µg/mL | partner 8 µg/mL
B. subtilis 168 [1], first compound 0.125 µg/mL | – | – | – | 0.0351
B. subtilis 168 [1], first compound 0.25 µg/mL | – | 0.0785 | 0.05 | 0.0399
S. aureus Newman [2], first compound 0.375 µg/mL | ≥ 1 | 0.929 | – | –
S. aureus Newman [2], first compound 0.5 µg/mL | 0.957 | 0.953 | 0.978 | –
S. aureus Newman [2], first compound 0.75 µg/mL | 0.99 | 0.848 | – | –
S. aureus Newman [2], first compound 1 µg/mL | 0.991 | ≥ 1 | ≥ 1 | –
S. aureus Newman [2], first compound 2 µg/mL | 0.996 | ≥ 1 | 0.946 | –
S. pneumoniae D39V [3], first compound 2 µg/mL | – | 0.918 | 0.922 | 0.899
S. pneumoniae D39V [3], first compound 4 µg/mL | – | 0.895 | 0.942 | 0.848
S. pneumoniae D39V [3], first compound 8 µg/mL | – | 0.912 | 0.912 | 0.836

S. pneumoniae D39V [3], partner 16 µg/mL, one replicate
Settings | fitness
first compound 2 µg/mL | 0.779
first compound 4 µg/mL | 0.736
first compound 8 µg/mL | 0.628

Settings | Bliss interaction score
B. subtilis 168 [4] | -0.17
S. aureus DSM 20231 | -0.404
S. aureus Newman [5] | 0.0694
S. pneumoniae D39V [6] | 0.0468
